Laboratory results taken from US20110092488A1, “Quninoline Methanol Compounds for the Treatment and Prevention of Parasitic Infections” (priority 2005, published 2011).
Entries after “also recorded” stand apart in the source; their conditions may differ.

Key:
[1] = test system: primary rat forebrain neurons; experiment: Neurocytotoxicity assay (MTT); conditions: for IC50: read-out: Neurotoxicity ranking (IC50 in μM), approximate IC50 from screen at 10, 100 and 1000 μM, MTT
Method: The neurocytotoxicity assay of AAQMs was conducted as per Dow et al.; The antimalarial potential of 4-quinolinecarbinolamines may be limited due to neurotoxicity and cross-resistance in mefloquine-resistant Plasmodium falciparum strains; Chemother. (48) 2624-2632 (2004) and is incorporated herein, by reference. This assay utilizes primary rat forebrain neurons and is a multi-endpoint screen. […] The AAQMs outlined in Table 1 were screened at 10, 100 and 1000 μM in triplicate, and the reduction in viability observed was determined using the 3-(4,5-dimethylthiazol-2-yl)-2,5-diphenyltetrazolium bromide (MTT) assay as per Dow et al., discussed above. Approximate IC50 values were calculated on the basis of the level of inhibition observed at each concentration. Full dose response assays were run for mefloquine and WR069878 with two fold dilutions (n=6 wells per dilution) and 11 dilutions for each drug. IC50s were calculated using Prism. Each time the assay is conducted, 20 μM mefloquine is included, as a control. […] Assays are re-run if the loss of viability induced by mefloquine is <40% or >60%. Neuroprotection experiments with 6,7-dinitroquinoxaline-2,3-dione (DNQX) and magnesium were performed as per Dow et al.; Transcriptional profiling of mefloquine-induced disruption of calcium homeostasis in neurons in vitro; Genomics (86)539-550 (2005), which is incorporated by reference, herein. Neurons were exposed to DNQX (100 μM) or magnesium (12 mM) for 5 min, followed by mefloquine (25 μM) or WR069878 (250 μM) for 20 min after which reduction in cell viability was determined. […] DNQX is an inhibitor of non-N-methyl-D-aspartate (NMDA) receptors, whilst magnesium inhibits the functioning of the inositol 1,4,5-trisphosphate (IP3)-mediated calcium signaling pathway at several points. The effects of mefloquine and WR069878 on neuronal calcium homeostasis were assessed utilizing confocal microscopy as per Dow et al, as discussed in Antimicrob Agents Chemother. (48)2624-2632 (2004), cited above, and incorporated by reference, herein. Briefly neurons were loaded with calcium sensitive dye Fluo 3-A for 1 h and were washed prior to image experiments. Neurons were ‘spiked’ with 100 μM mefloquine or WR069878. Subsequent changes in neuronal calcium homeostasis were recorded as fluctuations in the emitted fluorescence of fluo-3-complexed calcium at 530 nm (excitation was 488 nm). Sequential image scans of fields containing 5-25 neurons were used to construct temporal profiles. Scans were made at 10 s intervals. Fluorescence levels for each neuron were normalized 12 to time zero values. Data were then pooled from three and five independent experiments for mefloquine and WR069878 respectively.

P. falciparum TM91C235 = experiment: In vitro antimalarial activity against P. falciparum TM91C235; type: cell-based, Plasmodium falciparum; conditions: for TM91C235 IC90: Table 2
Method: The in vitro activities of AAQMs against P. falciparum strains W2, D6, TM91C235 and TM90C2A were evaluated using the method of Desjardins et al. as modified by Milhous et al. W2 is chloroquine resistant and mefloquine sensitive, D6 is chloroquine sensitive but naturally less susceptible to mefloquine, TM91C235 is resistant to mefloquine, chloroquine and pyrimethamine as is TM90C2A, however this latter parasite is a two pfmdr1 copy strain. We routinely run mefloquine in this screen as a control to ensure assay validity.

[2] = Method: The AAQMs indicated in Table 1 (10 μM) were added to a mixture containing an NADPH-regenerating buffer (1.25 mM β-NADP+, 3.3 mM glucose-6-phosphate, and 3.3 mM MgCl2) and 0.5 mg/ml pooled human liver microsomes to a final volume of 125 μl. The mixtures were incubated for 5 minutes at 37° C. and the reactions were initiated by adding 25 μl glucose-6-phosphate dehydrogenase to a final concentration of 1 unit/ml. The reactions were maintained at 37° C. until they were terminated by the addition of an equal volume of 100% ice cold acetonitrile at 0, 10, 30, 60, and 120 minutes. Samples were centrifuged to pellet the proteins and the supernatant was analyzed by LC-MS/MS in duplicate using fast LC gradient or isocratic methods. AAQM concentrations were quantified with external calibration, using plots of response v. amount. Chromatograms were analyzed using the mass spectrometry software Xcalibur® QuanBrowser (for ThermoFinnigan® instruments) or MassLynx® (for Waters® instruments). Concentrations of AAQMs remaining at each time point were calculated using the unknown peak areas and corresponding calibration curves. In order to calculate the half-life, a first-order rate of decay was assumed. […] All reagents were purchased from Sigma except for the microsomes, which were obtained from BD Gentest®. For metabolite identification, samples were prepared as described above with human liver microsomes. Additional samples were prepared with for each AAQM using mouse, rat, and rhesus monkey liver microsomes. Samples were separated using an LC gradient method and analyzed by full scan LC-MS and LC-MS/MS. […] These MS/MS data were also used to do preliminary structural elucidation. […] The relative percentage of formation of each metabolite was determined in a semi-quantitative manner since standards of each metabolite were not available. Peak areas of each detected AAQM metabolite and the internal standard were determined, and their ratios were calculated as metabolite area/internal standard area. The percent formation of each metabolite was determined as the area ratio divided by the sum of all the metabolite area ratios.
[3] = Aotus, 10 mg/kg/day oral x7; for Plasma conc on day 1 (ng/ml) 2 h: day 1, 2 h; for Plasma conc on day 1 (ng/ml) 24 h: day 1, 24 h; for Plasma conc. on day 7 (ng/ml) 2 h: day 7, 2 h; for Plasma conc. on day 7 (ng/ml) 24 h: day 7, 24 h
Method: (§1) The P. berghei-mouse efficacy data were obtained from the WRAIR chemical information system (subcutaneous testing) or from recent tests conducted at AFRIMS, Thailand or at the University of Miami using a modified version of the Thompson test. Groups of five mice were inoculated through i.p. injection on day 0 (usually with 1×106 P. berghei-parasitized erythrocytes). The drugs in Table 1 were administered either subcutaneously or orally for three days (usually on days 3-5) at doses of 1.25-160 mg/kg in two to four fold increments. Cure was defined as survival until day 60 (subcutaneous dosing) or day 31 post-treatment (oral dosing). […] The minimum effective dose was the lowest dose level that cured at least one of five mice. The Aotus studies were performed according to Obaldia; Detection of Klebsiella pnuumoniae antibodies in Aotus l. lemurinus (Panamanian owl monkey) using an enzyme linked immunosorbent assay (ELIA) test; Lab Anim (25)133-141 (1991) and Obaldia et al., WR 238605, chloroquine, and their combinations as blood schizonticides against a chloroquine-resistant strain of Plasmodium vivax in Aotus monkeys; Am. J. Trop. Med. Hyg. (56)508-510 (1997), which are incorporated by reference, herein. Groups of two Aotus lemurinus 6 lemurinus of the karyotype VIII or IX (27) male and female monkeys with weights ranging from 742-970 g were inoculated with 5×10^6 parasites of either the FVO strain of P. falciparum or the AMRU1 strain of P. vivax. Both of these strains are chloroquine resistant. […] Monkeys were examined and thick Giemsa-stained blood smears were prepared and enumerated daily (17) to monitor the course of infection. […] In some instances, a high dose of the test drug was used to retreat monkeys instead of the mefloquine rescue. Monkeys are considered cured if they are parasite free 90 days post treatment. […] Plasma samples were taken from the monkeys in some studies for quantification of metabolites. Additional blood samples were taken as appropriate for complete blood counts and serum chemistry. Research was conducted in compliance with the Animal Welfare Act and other federal statutes and regulations relating to animals and experiments involving animals and adheres to principles stated in the Guide for the Care and Use of Laboratory Animals, NRC Publication, 1996 edition (34).

[4] = test system: FVO strain of P. falciparum; experiment: Efficacy in P. falciparum-challenged Aotus monkeys; type: in vivo, Plasmodium falciparum in Aotus lemurinus lemurinus; conditions: 10 mg/kg/day x7 oral; groups of two; Cure = parasite free 90 days; R = average day of recrudescence; Failure = rescued with mefloquine
Method: as §1

Activity against P. falciparum TM91C235 (IC50 in ng/ml) (P. falciparum TM91C235) [ng/mL]	Route of metabolic transformation [2]	TM91C235 IC90 (P. falciparum TM91C235) [ng/mL]	Mean peak concentration [3] [ng/mL]	Plasma conc on day 1 (ng/ml) 2 h [3] [ng/mL]	Plasma conc on day 1 (ng/ml) 24 h [3] [ng/mL]	Plasma conc. on day 7 (ng/ml) 2 h [3] [ng/mL]	Plasma conc. on day 7 (ng/ml) 24 h [3] [ng/mL]	SMILES	Killing of neurons ([1]; at 1000 microM, FIG. 1)	IC50 [1] [µM]	Outcome in Aotus [4]
–	–	–	–	–	–	–	–	O=C(O)c1cc(C(F)(F)F)nc2c(C(F)(F)F)cccc12 [Mefloquine metabolite, reference compound]	only partial killing	–	–
0.63	not at all	–	–	–	–	–	–	CCCCNCC(O)c1cc(-c2ccc(Cl)cc2)nc2c(Cl)cc(Cl)cc12 (stereo not shown) [WR007524]	–	60	–
7.6	–	20	44	67	1.0	21	1.0	CCCCN(CCCC)CC(O)c1cc(-c2ccc(Cl)cc2)nc2c(Cl)cc(Cl)cc12 (stereo not shown) [WR029252]	–	600	Failure
2.7	–	8.5	413	454	84	371	105	CCCCN(CCCC)CC(O)c1cc(-c2ccc(Cl)cc2)nc2ccc(Cl)cc12 (stereo not shown) [WR035058]	–	600	Cures and Cure
1.1	N-dealkylation	–	–	–	–	–	–	CCN(CC)CC(O)c1cc(-c2ccc(Cl)cc2)nc2c(Cl)cc(Cl)cc12 (stereo not shown) [WR041294]	–	60	–
1.6	–	–	–	–	–	–	–	CCCCN(CCCC)CC(O)c1cc(-c2ccc(Cl)cc2)nc2cc(F)ccc12 (stereo not shown) [WR081049]	–	200	–
3.3	–	–	–	–	–	–	–	CCCC[N+]([O-])(CCCC)CC(O)c1cc(-c2ccc(Cl)cc2)nc2c(Cl)cc(Cl)cc12 (stereo not shown) [WR098656]	–	60	–
8.0	–	–	–	–	–	–	–	CCCCN(CCCC)CC(O)c1cc(-c2ccc(I)cc2)nc2c(Cl)cc(Cl)cc12 (stereo not shown) [WR106752]	–	–	–
0.48	hydroxylation	<0.5	28	27	2.7	30	3.8	CCCCNCC(O)c1cc(-c2ccc(Cl)cc2)nc2c(C)cc(C)cc12 (stereo not shown) [WR176399]	–	600	cleared parasitemias, but recrudescence was subsequently observed; also recorded: Clear (R21)
7.7	–	–	–	–	–	–	–	CCCCCCN(CCCCCC)CC(O)c1cc(-c2ccccc2)nc2c(Cl)cccc12 (stereo not shown) [WR211679]	–	–	–
5.2	–	–	–	–	–	–	–	CCCCN(CCCC)CC(O)c1cc(-c2ccc(Cl)cc2)nc2c(C)cccc12 (stereo not shown) [WR211925]	–	600	–
